Paper PMC9898036, “VIP152 is a selective CDK9 inhibitor with pre-clinical in vitro and in vivo efficacy in chronic lymphocytic leukemia” (Leukemia, 2022)

Key:
[1] = molecular target: FGFR3(G697C) (Homo sapiens, UniProt P22607, G697C); assay: KINOMEscan: FGFR3(G697C); format: binding; details: 1000 nM, read-out: Percent Control
[2] = system: treatment-naïve primary CLL samples; assay: Annexin V/propidium iodide flow cytometry; format: cell-based; details: Homo sapiens; 10 treatment-naïve samples; read-out: IC50 (cytotoxic activity)
[3] = molecular target: AKT1 (Homo sapiens, UniProt P31749); assay: KINOMEscan: AKT1; format: binding; details: 1000 nM, read-out: Percent Control
AKT1, sequence (P31749 whole entry): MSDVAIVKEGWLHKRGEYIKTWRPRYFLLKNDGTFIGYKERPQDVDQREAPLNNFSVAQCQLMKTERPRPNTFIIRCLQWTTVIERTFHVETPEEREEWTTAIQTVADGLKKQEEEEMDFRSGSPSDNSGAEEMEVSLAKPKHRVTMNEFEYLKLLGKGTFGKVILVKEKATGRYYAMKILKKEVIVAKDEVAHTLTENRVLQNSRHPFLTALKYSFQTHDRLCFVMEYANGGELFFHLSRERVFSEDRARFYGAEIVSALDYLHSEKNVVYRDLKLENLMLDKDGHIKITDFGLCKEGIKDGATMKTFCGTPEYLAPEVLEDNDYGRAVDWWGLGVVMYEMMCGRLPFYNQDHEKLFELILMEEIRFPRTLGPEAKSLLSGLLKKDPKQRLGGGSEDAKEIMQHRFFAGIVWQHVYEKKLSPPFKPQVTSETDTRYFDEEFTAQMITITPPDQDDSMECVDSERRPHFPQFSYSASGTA

[4] = molecular target: TAOK1 (Homo sapiens, UniProt Q7L7X3); assay: KINOMEscan: TAOK1; format: binding; details: 100 nM, read-out: Percent Control
TAOK1, sequence (Q7L7X3 whole entry): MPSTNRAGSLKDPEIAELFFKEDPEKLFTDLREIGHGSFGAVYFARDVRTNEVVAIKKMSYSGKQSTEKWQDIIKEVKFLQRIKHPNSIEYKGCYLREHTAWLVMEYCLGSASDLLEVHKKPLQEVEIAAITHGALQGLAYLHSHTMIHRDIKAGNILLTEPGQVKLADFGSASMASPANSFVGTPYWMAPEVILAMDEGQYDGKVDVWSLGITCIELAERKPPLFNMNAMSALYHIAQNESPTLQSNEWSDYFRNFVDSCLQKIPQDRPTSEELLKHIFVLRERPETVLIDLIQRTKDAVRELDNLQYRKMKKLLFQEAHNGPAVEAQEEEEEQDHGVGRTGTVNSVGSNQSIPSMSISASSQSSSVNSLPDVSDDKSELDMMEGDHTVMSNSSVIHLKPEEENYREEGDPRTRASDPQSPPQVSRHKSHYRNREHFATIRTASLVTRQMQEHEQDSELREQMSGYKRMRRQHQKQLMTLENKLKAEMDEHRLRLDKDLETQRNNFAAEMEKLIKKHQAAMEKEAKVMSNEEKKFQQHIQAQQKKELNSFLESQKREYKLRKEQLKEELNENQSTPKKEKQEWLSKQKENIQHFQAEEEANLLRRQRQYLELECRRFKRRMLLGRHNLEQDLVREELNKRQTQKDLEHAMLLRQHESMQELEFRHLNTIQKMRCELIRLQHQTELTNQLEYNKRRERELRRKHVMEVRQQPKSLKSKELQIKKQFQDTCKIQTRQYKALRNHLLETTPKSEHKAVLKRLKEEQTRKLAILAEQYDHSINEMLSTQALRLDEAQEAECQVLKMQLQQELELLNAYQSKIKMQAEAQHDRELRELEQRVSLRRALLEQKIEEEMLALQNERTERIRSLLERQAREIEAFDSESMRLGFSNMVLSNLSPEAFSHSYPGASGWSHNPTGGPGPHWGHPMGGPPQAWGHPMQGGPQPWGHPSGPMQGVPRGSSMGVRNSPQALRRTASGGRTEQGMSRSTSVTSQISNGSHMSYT

[5] = molecular target: CSNK1A1L (Homo sapiens, UniProt Q8N752); assay: KINOMEscan: CSNK1A1L; format: binding; details: 1000 nM, read-out: Percent Control
[6] = molecular target: HIPK1 (Homo sapiens, UniProt Q86Z02); assay: KINOMEscan: HIPK1; format: binding; details: 1000 nM, read-out: Percent Control
[7] = molecular target: RSK1(Kin.Dom.1-N-terminal) (Homo sapiens, UniProt Q15418); assay: KINOMEscan: RSK1(Kin.Dom.1-N-terminal); format: binding; details: 100 nM, read-out: Percent Control
[8] = molecular target: FGFR2 (Homo sapiens, UniProt P21802); assay: KINOMEscan: FGFR2; format: binding; details: 1000 nM, read-out: Percent Control
[9] = molecular target: SNRK (Homo sapiens, UniProt Q9NRH2); assay: KINOMEscan: SNRK; format: binding; details: 100 nM, read-out: Percent Control
[10] = system: Sodium Channel, Site 2; assay: Eurofins Diversity Panel; format: binding; details: rat, Conc. 10 μM
[11] = molecular target: MAK (Homo sapiens, UniProt P20794); assay: KINOMEscan: MAK; format: binding; details: 1000 nM, read-out: Percent Control
[12] = molecular target: CSF1R-autoinhibited (Homo sapiens, UniProt P07333); assay: KINOMEscan: CSF1R-autoinhibited; format: binding; details: 1000 nM, read-out: Percent Control
CSF1R-autoinhibited, sequence (P07333 539-972 limits assumed): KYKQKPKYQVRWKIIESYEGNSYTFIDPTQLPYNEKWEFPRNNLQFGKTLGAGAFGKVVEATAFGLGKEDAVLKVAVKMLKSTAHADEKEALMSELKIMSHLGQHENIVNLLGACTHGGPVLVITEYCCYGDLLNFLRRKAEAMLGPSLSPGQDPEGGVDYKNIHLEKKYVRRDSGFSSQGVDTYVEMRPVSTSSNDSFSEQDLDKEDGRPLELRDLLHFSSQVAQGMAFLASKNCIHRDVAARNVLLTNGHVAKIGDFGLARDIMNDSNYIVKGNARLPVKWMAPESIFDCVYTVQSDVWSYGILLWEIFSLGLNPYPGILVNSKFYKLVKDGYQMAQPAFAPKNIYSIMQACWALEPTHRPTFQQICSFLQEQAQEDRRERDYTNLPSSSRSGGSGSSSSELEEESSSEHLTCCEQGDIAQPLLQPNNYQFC

[13] = molecular target: ARK5 (Homo sapiens, UniProt O60285); assay: KINOMEscan: ARK5; format: binding; details: 1000 nM, read-out: Percent Control
ARK5, sequence (O60285 whole entry): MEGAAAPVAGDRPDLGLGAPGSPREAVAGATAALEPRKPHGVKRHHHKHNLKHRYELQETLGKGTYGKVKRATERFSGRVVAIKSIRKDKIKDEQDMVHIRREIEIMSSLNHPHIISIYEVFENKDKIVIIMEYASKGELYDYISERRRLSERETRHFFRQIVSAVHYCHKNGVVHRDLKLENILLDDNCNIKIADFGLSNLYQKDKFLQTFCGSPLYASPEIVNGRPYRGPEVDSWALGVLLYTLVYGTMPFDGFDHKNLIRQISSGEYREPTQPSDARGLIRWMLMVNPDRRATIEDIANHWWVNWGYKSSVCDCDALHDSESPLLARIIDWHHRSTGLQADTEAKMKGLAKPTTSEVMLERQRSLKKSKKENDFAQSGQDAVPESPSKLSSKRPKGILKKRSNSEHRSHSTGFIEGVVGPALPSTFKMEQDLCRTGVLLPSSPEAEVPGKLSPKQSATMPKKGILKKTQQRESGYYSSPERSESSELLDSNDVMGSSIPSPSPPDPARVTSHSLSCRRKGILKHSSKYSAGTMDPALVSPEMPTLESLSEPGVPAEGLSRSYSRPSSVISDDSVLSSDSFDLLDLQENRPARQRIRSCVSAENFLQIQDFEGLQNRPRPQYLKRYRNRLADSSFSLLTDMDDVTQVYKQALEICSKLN

[14] = molecular target: CDK3 (Homo sapiens, UniProt Q00526); assay: KINOMEscan: CDK3; format: binding; details: 1000 nM, read-out: Percent Control
[15] = molecular target: CHEK1 (Homo sapiens, UniProt O14757); assay: KINOMEscan: CHEK1; format: binding; details: 1000 nM, read-out: Percent Control
[16] = system: EGFR(L747-T751del,Sins); assay: KINOMEscan: EGFR(L747-T751del,Sins); format: binding, human; details: 1000 nM
[17] = molecular target: MRCKA (Homo sapiens, UniProt Q5VT25); assay: KINOMEscan: MRCKA; format: binding; details: 1000 nM, read-out: Percent Control
MRCKA, sequence (Q5VT25 whole entry): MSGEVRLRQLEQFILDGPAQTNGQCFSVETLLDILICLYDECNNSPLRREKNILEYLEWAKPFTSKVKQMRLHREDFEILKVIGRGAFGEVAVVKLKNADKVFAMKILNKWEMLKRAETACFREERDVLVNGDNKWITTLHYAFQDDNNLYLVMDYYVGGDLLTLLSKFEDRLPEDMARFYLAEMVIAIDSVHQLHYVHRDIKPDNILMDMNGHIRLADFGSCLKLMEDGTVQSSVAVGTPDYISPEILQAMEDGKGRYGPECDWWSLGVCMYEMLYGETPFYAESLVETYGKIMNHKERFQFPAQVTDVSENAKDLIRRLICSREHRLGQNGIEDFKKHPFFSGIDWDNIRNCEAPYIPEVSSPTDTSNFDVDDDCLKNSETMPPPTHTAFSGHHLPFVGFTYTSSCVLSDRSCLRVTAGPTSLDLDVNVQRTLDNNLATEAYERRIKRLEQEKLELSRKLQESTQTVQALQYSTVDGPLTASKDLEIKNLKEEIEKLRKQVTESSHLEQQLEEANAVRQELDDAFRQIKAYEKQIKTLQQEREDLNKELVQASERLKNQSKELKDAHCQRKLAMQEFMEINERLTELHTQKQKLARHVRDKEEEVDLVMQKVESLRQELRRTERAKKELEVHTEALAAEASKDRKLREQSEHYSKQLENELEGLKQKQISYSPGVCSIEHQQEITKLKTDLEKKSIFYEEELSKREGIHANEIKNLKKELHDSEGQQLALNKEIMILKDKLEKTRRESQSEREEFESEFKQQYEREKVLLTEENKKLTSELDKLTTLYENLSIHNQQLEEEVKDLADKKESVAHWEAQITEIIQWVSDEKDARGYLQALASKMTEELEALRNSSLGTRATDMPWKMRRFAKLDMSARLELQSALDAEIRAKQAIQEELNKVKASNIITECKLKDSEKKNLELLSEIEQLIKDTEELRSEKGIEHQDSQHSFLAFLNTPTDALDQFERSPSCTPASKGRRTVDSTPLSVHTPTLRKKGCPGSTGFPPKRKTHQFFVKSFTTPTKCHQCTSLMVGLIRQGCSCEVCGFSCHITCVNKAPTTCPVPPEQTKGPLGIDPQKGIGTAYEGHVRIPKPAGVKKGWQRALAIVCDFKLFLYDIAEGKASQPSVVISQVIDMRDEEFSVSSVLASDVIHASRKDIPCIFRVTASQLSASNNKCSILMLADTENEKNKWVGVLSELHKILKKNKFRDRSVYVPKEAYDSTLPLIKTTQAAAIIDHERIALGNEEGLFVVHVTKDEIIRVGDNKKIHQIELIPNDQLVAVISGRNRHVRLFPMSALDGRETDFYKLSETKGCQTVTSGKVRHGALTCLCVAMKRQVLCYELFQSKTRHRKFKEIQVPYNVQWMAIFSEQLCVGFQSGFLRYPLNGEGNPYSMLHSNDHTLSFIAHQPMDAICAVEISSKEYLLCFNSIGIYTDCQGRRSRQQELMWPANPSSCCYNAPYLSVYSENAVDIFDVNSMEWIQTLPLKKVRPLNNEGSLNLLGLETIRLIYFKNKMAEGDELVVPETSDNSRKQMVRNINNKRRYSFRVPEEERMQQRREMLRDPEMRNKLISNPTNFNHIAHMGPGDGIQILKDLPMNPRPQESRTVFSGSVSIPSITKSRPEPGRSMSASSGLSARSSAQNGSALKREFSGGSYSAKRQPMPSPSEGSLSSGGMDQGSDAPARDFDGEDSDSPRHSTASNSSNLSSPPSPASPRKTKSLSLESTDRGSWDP

[18] = molecular target: CSNK1A1 (Homo sapiens, UniProt P48729); assay: KINOMEscan: CSNK1A1; format: binding; details: 1000 nM, read-out: Percent Control
[19] = molecular target: EPHA8 (Homo sapiens, UniProt P29322); assay: KINOMEscan: EPHA8; format: binding; details: 1000 nM, read-out: Percent Control
[20] = molecular target: MLCK (Homo sapiens, UniProt Q32MK0); assay: KINOMEscan: MLCK; format: binding; details: 1000 nM, read-out: Percent Control
[21] = molecular target: T1, Sigma σ1 (Homo sapiens, UniProt Q99720); assay: Eurofins Diversity Panel; format: binding; details: hum
T1 construct: purchased Eurofins
T1 sequence (Q99720 whole entry): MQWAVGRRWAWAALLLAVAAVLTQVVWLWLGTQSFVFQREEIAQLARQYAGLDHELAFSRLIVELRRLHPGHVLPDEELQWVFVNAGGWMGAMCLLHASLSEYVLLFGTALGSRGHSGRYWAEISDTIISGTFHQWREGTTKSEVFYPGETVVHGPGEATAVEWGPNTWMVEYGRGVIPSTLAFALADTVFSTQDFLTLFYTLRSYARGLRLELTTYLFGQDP

[22] = system: Nicotinic Acetylcholine; assay: Eurofins Diversity Panel; format: binding, human; details: hum, Conc. 10 μM
[23] = molecular target: ERK8 (Homo sapiens, UniProt Q8TD08); assay: KINOMEscan: ERK8; format: binding; details: 1000 nM, read-out: Percent Control
[24] = molecular target: TSSK3 (Homo sapiens, UniProt Q96PN8); assay: KINOMEscan: TSSK3; format: binding; details: 100 nM, read-out: Percent Control
[25] = molecular target: ERK4 (Homo sapiens, UniProt P31152); assay: KINOMEscan: ERK4; format: binding; details: 1000 nM, read-out: Percent Control
[26] = molecular target: RPS6KA4(Kin.Dom.1-N-terminal) (Homo sapiens, UniProt O75676); assay: KINOMEscan: RPS6KA4(Kin.Dom.1-N-terminal); format: binding; details: 100 nM, read-out: Percent Control
RPS6KA4(Kin.Dom.1-N-terminal), sequence (O75676 1-371 limits assumed): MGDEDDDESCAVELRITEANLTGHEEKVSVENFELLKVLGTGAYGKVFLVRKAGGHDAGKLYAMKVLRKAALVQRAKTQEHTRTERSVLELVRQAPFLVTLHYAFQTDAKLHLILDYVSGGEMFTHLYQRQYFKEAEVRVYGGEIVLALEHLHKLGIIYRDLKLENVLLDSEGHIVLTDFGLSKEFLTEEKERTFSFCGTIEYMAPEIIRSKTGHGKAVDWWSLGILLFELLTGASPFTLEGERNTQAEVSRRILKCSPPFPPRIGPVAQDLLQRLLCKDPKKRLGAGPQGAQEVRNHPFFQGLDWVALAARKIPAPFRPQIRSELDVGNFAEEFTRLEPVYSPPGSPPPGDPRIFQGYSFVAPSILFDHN

Question: What does the source list for `COc1cc(F)ccc1-c1cc(Nc2cc(CS(C)(=N)=O)ccn2)ncc1F` (centres unmarked) [VIP152]?
Answer: remaining binding at 1 µM [1]: 63%; IC50 [2]: < 100 nM; remaining binding at 1 µM [3]: 99%; remaining binding at 0.1 µM [4]: 92%; remaining binding at 1 µM [5]: 92%; remaining binding at 1 µM [6]: 54%; remaining binding at 0.1 µM [7]: 100%; remaining binding at 1 µM [8]: 70%; remaining binding at 0.1 µM [9]: 100%; % Inh. [10]: 26%; remaining binding at 1 µM [11]: 84%; remaining binding at 1 µM [12]: 73%; remaining binding at 1 µM [13]: 100%; remaining binding at 1 µM [14]: 37%; remaining binding at 1 µM [15]: 100%; Percent Control [16]: 97%; remaining binding at 1 µM [17]: 82%; remaining binding at 1 µM [18]: 95%; remaining binding at 1 µM [19]: 100%; remaining binding at 1 µM [20]: 100%; IC50 [21]: 1780 nM; Ki [21]: 750 nM; nH [21]: 0.75; inhibition at 10 µM ([21]; Conc. 10 μM): 71%; % Inh. [22]: -9%; remaining binding at 1 µM [23]: 58%; remaining binding at 0.1 µM [24]: 96%; remaining binding at 1 µM [25]: 99%; remaining binding at 0.1 µM [26]: 100%
